{"source": "paper PMC9551036", "about": "“A selective and orally bioavailable VHL-recruiting PROTAC achieves SMARCA2 degradation in vivo” (Nature Communications, 2022)", "key": {"SMARCA2^BD": {"biological_target": "T1, SMARCA2^BD (Homo sapiens, UniProt P51531)", "T1 construct": "P51531-2, residues 1373-1493 with additional N-terminal SM residues; GST (TEV site) (N, cleaved yes); made in house; host or cells: Escherichia coli BL21(DE3)", "T1 sequence (P51531 1373-1493 isoform P51531-2)": "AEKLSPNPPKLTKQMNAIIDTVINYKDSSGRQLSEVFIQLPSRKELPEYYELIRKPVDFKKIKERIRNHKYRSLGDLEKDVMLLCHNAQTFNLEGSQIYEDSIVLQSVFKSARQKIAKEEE", "test": "SPR binding to immobilised SMARCA2 bromodomain", "conditions": "benzoxazinone lead series, Fig. 1b; read-out: SMARCA2^BD SPR KD", "method": "SMARCA4^BD was provided by the Structural Genomics Consortium (SGC), Toronto[32] and SMARCA2^BD and PRM1^BD5 were synthesised by GeneArt then subcloned into pDEST15 vectors (Invitrogen). The VCB complex was expressed and purified as described previously, with the modification that 0.3 mM IPTG was used for induction of expression. […] Both were stored in 20 mM 4-(2-hydroxyethyl)−1-piperazineethanesulfonic acid (HEPES), 150 mM sodium chloride and 1 mM tris(2-carboxyethyl)phosphine (TCEP) pH 7.5. SMARCA2^BD, SMARCA4^BD and PBRM1^BD5 were expressed in Escherichia coli BL21(DE3) as N-terminal GST fusion proteins with a TEV protease cleavage site. Expression and purification of these proteins has been described previously[32],[33]. Starter cultures were grown overnight at 37 °C in 10 mL of Luria-Bertani (LB) medium with ampicillin (100 μg/mL). The starter cultures were diluted (1:100) in Terrific Broth (TB) medium with ampicillin (100 μg/mL) and grown in a shaking incubator at 37 °C to an optical density (OD600) ~1 before the temperature was lowered for induction (to 23 °C for SMARCA2^BD or 18 °C for SMARCA4^BD and PRRM1^BD5). […] Cells were harvested by centrifugation and stored at −80 °C prior to purification. […] The Lysis buffers were as follows: for SMARCA2^BD: 50 mM HEPES, 500 mM sodium chloride, 5% glycerol, 5 mM dithiothreitol (DTT); for SMARCA4^BD: 25 mM HEPES, 0.3 M sodium chloride, 5% glycerol, 10 mM DTT, pH 7.5; for PBRM1^BD5: 25 mM HEPES, 300 mM sodium chloride, 5% glycerol, 10 mM DTT, pH 7.8; in each case supplemented with complete protease inhibitors (Roche). Affinity purification was performed using Glutathione Sepharose 4B (GE Healthcare) in batch mode or on-column. […] For SMARCA2^BD, prior to TEV protease cleavage the eluted GST-tagged BD was first dialysed into desalting buffer (20 mM HEPES, 250 mM sodium chloride, pH 7.0 + 0.5% glycerol). Where TEV cleavage was performed in solution, a second affinity (GST-trap) column purification step was carried out to remove the GST-tag and uncleaved GST-tagged protein. Proteins were further purified by SEC (HiLoad Superdex-75, 16/600) (GE Healthcare) and stored in Storage buffer (for SMARCA2^BD: 20 mM HEPES, 150 mM sodium chloride, pH 7.5; for SMARCA4^BD: 10 mM HEPES, 0.5 M NaCl, 5% glycerol, pH 7.5; for PBRM1^BD5: 20 mM HEPES, 300 mM NaCl, 5 mM DTT, pH 7.8). For AlphaScreen assays, eluted GST-tagged BDs were purified directly by SEC in the respective storage buffers without TEV cleavage. All chromatography purification steps were performed either at room temperature or 4 °C using an ÄKTA FPLC purification system (GE Healthcare) or a plastic Econo-Pac column (Bio-Rad).\nSPR data were acquired on Biacore 8K or T200 instruments (Cytiva). Target proteins were immobilised at 25 °C on CM5 chips by amine coupling (EDC/NHS, Cytiva) in HBS-P+ running buffer (pH 7.4), containing 2 mM TCEP. […] The reference surface was subsequently deactivated using 1 M ethanolamine. […] Biotinylated VCB was prepared as previously described[27]: in brief, the complex was mixed 1:1 with EZ-Link NHS–PEG4–biotin (Thermo Scientific) and incubated at room temperature for 1 h. Unreacted NHS-biotin was removed using a PD-10 desalting column (Cytiva) into 20 mM HEPES, pH 7.5, 150 mM sodium chloride and 1 mM DTT. The reference surface was generated by deactivating the EDC/NHS-treated surface with 1 M ethanolamine. All interaction experiments were done at 6 °C in running buffer (20 mM TRIS, pH 8.3, 150 mM potassium chloride, 2 mM magnesium chloride, 2 mM TCEP, 0.005% TWEEN 20, 1% dimethyl sulfoxide). For ternary complex measurements, a sensor chip surface with VCB immobilised was used (preparation as described above). Experiments were run in dual-inject mode with 10 µM SMARCA present during the injection and dissociation phase. Sensorgrams from reference surfaces and blank injections were subtracted from the raw data prior to data analysis using Biacore Insight software."}, "[1]": {"biological_target": "T2, VCB: PROTAC: SMARCA2^BD ternary complex (Homo sapiens, UniProt P51531)", "T2 construct": "P51531-2, residues 1373-1493 with additional N-terminal SM residues; GST (TEV site) (N); His6 (TEV site) (N, cleaved yes); made in house; host or cells: SMARCA2^BD: Escherichia coli BL21(DE3)", "T2 sequence (P51531 with tags, fused parts or gaps isoform P51531-2)": "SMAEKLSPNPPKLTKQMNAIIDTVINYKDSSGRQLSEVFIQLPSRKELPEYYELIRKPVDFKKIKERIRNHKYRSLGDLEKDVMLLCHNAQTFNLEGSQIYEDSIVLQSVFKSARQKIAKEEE", "test": "TR-FRET ternary complex affinity and cooperativity, SMARCA2", "type": "binding"}, "[2]": {"test_system": "VCB: PROTAC: SMARCA2^BD ternary complex", "test": "TR-FRET ternary complex affinity and cooperativity, SMARCA2", "type": "binding, human", "conditions": "ratio TR-FRET EC50 / TR-FRET EC50 +VCB measured in the same run, SMARCA2BD"}, "Solubility testing": {"test": "Solubility testing", "type": "physicochemical", "conditions": "for solubility at 24 h: buffer, kinetic from dmso stock", "method": "Dilution into a 1:1 mixture of acetonitrile and water was used as reference. After 24 h, the incubations were filtrated, and the filtrate was analyzed by LC-UV."}, "Microsomal stability": {"test": "Microsomal stability", "type": "in vitro ADME", "conditions": "for Mic. Stab. Human / Mic. Stab. Human QH: human liver microsomes; for Mic. Stab. Mouse / Mic. Stab. Mouse QH: mouse liver microsomes; for Mic. Stab. Rat / Mic. Stab. Rat QH: rat liver microsomes", "method": "[…] Reactions were terminated by addition of acetonitrile and precipitates separated by centrifugation. Compound concentrations in supernatants were measured by HPLC-MS/MS and clearance was calculated from compound half-lives using the well-stirred liver model."}, "[3]": {"test": "Bidirectional permeability measurement in Caco-2 cells", "type": "in vitro ADME", "conditions": "human", "method": "Bidirectional permeability of test compounds across a Caco-2 cell monolayer was measured as described[43] with a modification of preincubation time[44]: Briefly, Caco-2 cells were seeded onto Transwell inserts (#3379, Corning, Wiesbaden, Germany) at a density of 160000 cells/cm^2 and cultured in DMEM (high glucose) containing 10% fetal bovine serum for 14–21 days. Cells were incubated with culture media containing 1 µM test compound for 24 h. […] Samples were taken at different time points for up to 2 h. Test compound in the samples was quantified with LC-MS/MS. To elucidate the role of drug transporter P-gp in the transcellular transport, permeability measurement was performed in the absence and presence of the selective P-gp inhibitor zosuquidar (5 µM final concentration). Apparent permeability coefficients (Papp,AB, Papp,BA) were calculated as follows:1 Papp,AB=Q_AB/C0×s×t 2 Papp,BA=Q_BA/C0×s×t where Q is the amount of compound recovered in the receiver compartment after the incubation time t, C0 the initial compound concentration given to the donor compartment, and s the surface area of the Transwell inserts. Efflux ratio is calculated as the quotient of Papp,BA (mean of duplicate) to Papp,AB (mean of duplicate). […] In addition, Transepithelial electrical resistance (TEER) values were measured for each plate before the permeability assay. All three parameters (efflux of the reference substrates, Papp values of the low permeable compound, and TEER values) were used to ensure the quality of the assays."}, "[4]": {"biological_target": "VCB: PROTAC: SMARCA2^BD ternary complex (Homo sapiens, UniProt P40337+P51531)", "sequence (P51531 with tags, fused parts or gaps isoform P51531-2)": "as above", "sequence (P40337 54-213)": "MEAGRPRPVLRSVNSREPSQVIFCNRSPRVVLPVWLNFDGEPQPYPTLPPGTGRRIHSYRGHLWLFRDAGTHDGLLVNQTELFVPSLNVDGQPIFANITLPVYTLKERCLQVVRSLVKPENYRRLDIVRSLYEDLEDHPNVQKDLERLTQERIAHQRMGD", "sequence (Q15369 17-112 partner)": "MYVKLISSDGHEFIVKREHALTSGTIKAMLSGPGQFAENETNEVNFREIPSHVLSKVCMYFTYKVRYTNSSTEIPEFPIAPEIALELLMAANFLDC", "sequence (Q15370 1-104 partner)": "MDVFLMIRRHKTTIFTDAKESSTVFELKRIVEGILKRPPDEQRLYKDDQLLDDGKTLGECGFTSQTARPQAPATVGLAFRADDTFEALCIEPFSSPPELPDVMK", "test": "TR-FRET ternary complex affinity and cooperativity, SMARCA2", "type": "binding", "set-up": "P51531-2, residues 1373-1493 with additional N-terminal SM residues; GST (TEV site) (N); His6 (TEV site) (N, cleaved yes); made in house; host or cells: SMARCA2^BD: Escherichia coli BL21(DE3)"}}, "note": "pEC50, pKd: −log10 of the molar value. Where “and” joins values, the source holds several entries; their conditions need not be identical. Equal entries are not always repeated. Where two headings read alike, the source gives them in different places.", "data": [{"smiles": "CN1CCN(c2nc(=O)c3c(Br)cccc3o2)CC1", "note": "[R = Br]", "values": [{"measurement": "pKd", "setting": "SMARCA2^BD", "value": 5.05}]}, {"smiles": "CN1CCN(c2nc(=O)c3c(Cl)cccc3o2)CC1", "note": "[R = Cl]", "values": [{"measurement": "pKd", "setting": "SMARCA2^BD", "value": 4.60}]}, {"smiles": "CN1CCN(c2nc(=O)c3c(F)cccc3o2)CC1", "note": "[R = F]", "values": [{"measurement": "pKd", "setting": "SMARCA2^BD", "value": "< 4.60"}]}, {"smiles": "CN1CCN(c2nc(=O)c3ccccc3o2)CC1", "note": "[R = H]", "values": [{"measurement": "pKd", "setting": "SMARCA2^BD", "value": "< 4.60"}]}, {"smiles": "CN1CCN(c2nc(=O)c3c(I)cccc3o2)CC1", "note": "[R = I]", "values": [{"measurement": "pKd", "setting": "SMARCA2^BD", "value": 4.74}]}, {"smiles": "O=c1nc2n(C3CCCC3)c3cc(C4CCNCC4)ccc3n2c2cccc(Br)c12", "note": "[compound 4]", "values": [{"measurement": "pEC50", "setting": "[1]; SMARCA2 BD EC50, binary, PROTAC alone, individual replicates", "value": 7.05}, {"measurement": "pEC50", "setting": "[1]; TR-FRET SMARCA2BD EC50, TR-FRET competition for SMARCA2BD, without VCB, mean ± SD", "value": 7.06}, {"measurement": "cooperativity α (SMARCA2BD)", "setting": "[2]", "value": 1.2}, {"measurement": "solubility at 24 h", "setting": "Solubility testing; pH 4.5, aqueous buffer, pH 4.5, read-out: Solubility pH 4.5", "value": 85, "unit": "µg/mL"}, {"measurement": "solubility at 24 h", "setting": "Solubility testing; pH 6.8, aqueous buffer, pH 6.8, read-out: Solubility pH 6.8", "value": 79, "unit": "µg/mL"}, {"measurement": "Mic. Stab. Human", "setting": "Microsomal stability", "value": "<24", "unit": "% QH"}, {"measurement": "Mic. Stab. Human QH", "setting": "Microsomal stability", "value": "<24.400", "unit": "%"}, {"measurement": "Mic. Stab. Mouse", "setting": "Microsomal stability", "value": "<24", "unit": "% QH"}, {"measurement": "Mic. Stab. Mouse QH", "setting": "Microsomal stability", "value": 25.670, "unit": "%"}, {"measurement": "Mic. Stab. Rat", "setting": "Microsomal stability", "value": "<23", "unit": "% QH"}, {"measurement": "Mic. Stab. Rat QH", "setting": "Microsomal stability", "value": "<23.080", "unit": "%"}, {"measurement": "Papp A→B at 1 µM", "setting": "[3]; Caco-2, pH 7.4, Caco-2, a to b, read-out: Caco-2 Pab", "value": 2.55, "unit": "×10⁻⁶ cm/s"}, {"measurement": "Papp B→A at 1 µM", "setting": "[3]; Caco-2, pH 7.4, Caco-2, b to a, read-out: Caco-2 Pba", "value": 32.6, "unit": "×10⁻⁶ cm/s"}, {"measurement": "efflux ratio at 2 h, 1 µM", "setting": "[3]; Caco-2, pH 7.4, Caco-2, read-out: Caco-2 Efflux ratio", "value": 12.8}, {"measurement": "pEC50", "setting": "[4]; TR-FRET Ternary SMARCA2BD EC50 (PROTAC + VCB), TR-FRET competition for SMARCA2BD, + VCB, mean ± SD", "value": 7.13}, {"measurement": "pEC50", "setting": "[4]; Ternary SMARCA2 BD EC50 (PROTAC + VCB), PROTAC + VCB, individual replicates", "value": 7.13}]}, {"smiles": "Cc1ncsc1-c1ccc([C@@H](COCCN2CCC(c3ccc4c(c3)n(C3CCCC3)c3nc(=O)c5c(Br)cccc5n43)CC2)NC(=O)[C@@H]2C[C@@H](O)CN2C(=O)[C@@H](NC(=O)C2(F)CC2)C(C)(C)C)cc1", "note": "[compound 24]", "values": [{"measurement": "Solubility pH 4.5", "setting": "Solubility testing; pH 4.5", "value": "<1.000 <1.000 ug/mL"}, {"measurement": "Solubility pH 6.8", "setting": "Solubility testing; pH 6.8", "value": "<1.000 <1.000 ug/mL"}, {"measurement": "Mic. Stab. Human", "setting": "Microsomal stability", "value": "59 ± 0.4", "unit": "% QH"}, {"measurement": "Mic. Stab. Human QH", "setting": "Microsomal stability", "value": "59.130% and 58.510%"}, {"measurement": "Mic. Stab. Mouse", "setting": "Microsomal stability", "value": "40 ± 2", "unit": "% QH"}, {"measurement": "Mic. Stab. Mouse QH", "setting": "Microsomal stability", "value": "38.210% and 41.130%"}, {"measurement": "Mic. Stab. Rat", "setting": "Microsomal stability", "value": 31, "unit": "% QH"}, {"measurement": "Mic. Stab. Rat QH", "setting": "Microsomal stability", "value": "< 23.080% and 30.780%"}]}]}
